In general, kinetic solubility refers to the concentration staying in solution when a stock, usually in DMSO, is diluted into the medium.

≈ marks a conversion by molar mass, not a printed value.

The values below come from PubChem BioAssay AID1996.

For this data set the following is noted: buffer; pH 7.4; 200.0 µM.
The compound `CN(Cc1ccccc1Cl)C(=O)CNC(=O)C12CC3CC(CC(C3)C1)C2` displayed a solubility (kinetic) of more than 56.2 µg/mL.
Turning to `O=C(CCC(=O)N1CCCCCC1)Nc1ccc([N+](=O)[O-])cc1`, the solubility (kinetic) stood at 9.2 µg/mL (≈ 28.8 µM).
The compound `CC(C)(C)C(=O)c1cn(Cc2ccccc2)c2ccccc12` gave a solubility (kinetic) of 1.5 µg/mL (≈ 5.15 µM).
To `O=C(Nc1ccccc1)N1CCN(C(=O)Nc2ccccc2)CC1` belongs 3.1 µg/mL (≈ 9.56 µM).
In the case of `NC(=O)C1Cc2ccccc2CN1S(=O)(=O)c1ccc(Cl)s1` (stereo unspecified), the solubility (kinetic) is more than 53.5 µg/mL.
In the case of `Cc1noc2ncnc(N3CCN(c4ccc(F)cc4)CC3)c12` it was 1.7 µg/mL (≈ 5.43 µM); in that of `Cc1cc(-c2ccccc2)nc2oc3c(c12)NC(=O)CN(c1ccccc1)C3=O`, less than 0.3 µg/mL; in that of `O=C(CCl)N(C1CCCC1)C1CCS(=O)(=O)C1` (stereo unspecified), more than 42 µg/mL.
Compound `CC(C)Cn1c(N)c(C(=O)COC(=O)c2ccccc2C(=O)c2ccccc2)c(=O)n(C)c1=O` showed a solubility (kinetic) of 3.5 µg/mL (≈ 7.55 µM).
Regarding `Cc1ccc(NC(=O)CCNC(=O)c2ccco2)cc1Cl`, the solubility (kinetic) was found to be 20.3 µg/mL (≈ 66.2 µM).
For the compound `CCOC(=O)c1cc(-c2cccc([N+](=O)[O-])c2)on1`, the kinetic solubility is 2.1 µg/mL (≈ 8.01 µM).
`CC1Cc2ccccc2N1Cc1ccc([N+](=O)[O-])cc1` (stereo unspecified) displayed a solubility (kinetic) of less than 0.3 µg/mL.
The compound `CCOC(=O)N1CCN(C(=O)c2cc3cc(F)ccc3[nH]2)CC1` came in with a kinetic solubility of 40.5 µg/mL (≈ 127 µM).
The compound `COc1cccc(OCC(=O)NC2CCCCCC2)c1` came in with a kinetic solubility of more than 41.6 µg/mL.
To `CC(=O)Nc1c2c(nn1-c1ccccc1C)CS(=O)C2` (stereo unspecified) belongs more than 43.4 µg/mL.
`COc1cc(OC)c(C(=O)NC2CCCc3ccccc32)cc1OC` (stereo unspecified) displayed a solubility (kinetic) of 44.3 µg/mL (≈ 130 µM).
To `Cc1c(C(=O)OCC(=O)NCC2CCCO2)oc2ccccc12` (stereo unspecified) belongs more than 47.6 µg/mL.
Compound `CCOc1ccccc1NC(=O)C1CCN(S(C)(=O)=O)CC1` displayed a kinetic solubility of more than 49 µg/mL.
In turn, `CN1CCN(c2oc(-c3ccc([N+](=O)[O-])cc3)nc2C#N)CC1` registered a solubility (kinetic) of 4.1 µg/mL (≈ 13.1 µM).
Turning to `Cc1ccc(C(=O)NCC(=O)OCC(=O)c2c(N)n(C)c(=O)n(C)c2=O)cc1C`, the solubility (kinetic) is 7.3 µg/mL (≈ 18.1 µM).
In the case of `Cc1c(C#N)c(NC(=O)C(C)C)n(Cc2ccccc2)c1C` it was 8.1 µg/mL (≈ 27.4 µM); in that of `O=C(C1COc2ccccc2O1)N1CCN(c2ccc(C(F)(F)F)cn2)CC1` (stereo unspecified), 16.3 µg/mL (≈ 41.4 µM); in that of `COc1ccc2nc(SCC(=O)NC3CCCC3)c(C)cc2c1`, less than 0.4 µg/mL.
Turning to `CCNC(=O)c1ccccc1-c1nc(-c2ccccc2OC)no1`, the solubility (kinetic) came to 42.3 µg/mL (≈ 131 µM).
Compound `O=C(O/N=C1\CCS(=O)(=O)c2sccc21)c1ccc(F)cc1` registered a solubility (kinetic) of 1.2 µg/mL (≈ 3.54 µM).
`Cc1cc(=O)[nH]c(SCC(=O)NC2CCCc3ccccc32)n1` (stereo unspecified) returned a kinetic solubility of 32.1 µg/mL (≈ 97.4 µM).
In the case of `NC(=O)C1CCN(C(=O)c2ccc3ccccc3c2)CC1` it was more than 42.4 µg/mL; in that of `COc1ccc(-c2nc(=S)c3c(n2Cc2cccnc2)CC(C)(C)OC3)cc1`, more than 59 µg/mL.
In the case of `COc1cccc(C(=O)NCCNC(=O)c2ccc(C)nc2)c1` it was 45.7 µg/mL (≈ 146 µM); in that of `Nc1ccncc1N`, 12.2 µg/mL (≈ 112 µM).
In turn, `Cc1ccc2c(CC(=O)N3CCN(c4ccccc4)CC3)coc2c1` showed a solubility (kinetic) of 8.1 µg/mL (≈ 24.2 µM).
As for `OCCC1CN(CC2CC2)CCN1Cc1ccc(F)c(F)c1` (stereo unspecified), the solubility (kinetic) is more than 46.6 µg/mL.
As to `CN(C)/C=C/C(=O)c1ccc2noc(-c3ccccc3)c2c1`, the kinetic solubility amounted to 15.1 µg/mL (≈ 51.7 µM).
`Cc1ncc(S(=O)(=O)C(C)(C)C)c(N)n1` came in with a kinetic solubility of 27.2 µg/mL (≈ 119 µM).
Turning to `O=[N+]([O-])c1cccc2c(S(=O)(=O)N3CCCCC3)cccc12`, the kinetic solubility turned out to be 9.5 µg/mL (≈ 29.7 µM).
To `COc1ccc(S(=O)(=O)Nc2ccc(C)cn2)cc1` belongs 25.4 µg/mL (≈ 91.3 µM); to `CCC(CC)NC(=O)C1CC(=O)N(CCc2ccc(F)cc2)C1` (stereo unspecified), more than 48.1 µg/mL.
`CCC(=O)N1CCN=C1SCc1cc(C)ccc1C` showed a solubility (kinetic) of 35.6 µg/mL (≈ 129 µM).
Compound `CC(NC(=S)NC1CCCCC1)c1ccccc1` (stereo unspecified) came in with a solubility (kinetic) of 36.1 µg/mL (≈ 138 µM).
In turn, `O=C(O)C1CCN(S(=O)(=O)c2ccc3c(c2)OCCCO3)CC1` gave a solubility (kinetic) of more than 51.2 µg/mL.
In the case of `COCCNc1c2c(c(C#N)c3nc4ccccc4n13)CCCC2` it was 11.8 µg/mL (≈ 36.8 µM).
In the case of `OC(CN1CCCC(C(F)(F)F)C1)c1ccccc1` (stereo unspecified), the solubility (kinetic) turned out to be 31.1 µg/mL (≈ 114 µM).
On to `O=C(/C=C/c1ccccc1F)N1CCN(c2ccccn2)CC1`, for which the solubility (kinetic) came out at 35.8 µg/mL (≈ 115 µM).
Take `S=C(Nc1cccc(Cl)c1)Nc1ccc2c(c1)OCCO2`: the solubility (kinetic) turned out to be 40.4 µg/mL (≈ 126 µM).
In the case of `NC(=O)Nc1ccccc1C(=O)Nc1ccc2ccccc2c1` it was 19.6 µg/mL (≈ 64.2 µM).
With `O=C(c1ccc2ccccc2n1)N(CCO)Cc1ccccc1`, the kinetic solubility came out at 41.4 µg/mL (≈ 135 µM).
With `O=[N+]([O-])c1cc([N+](=O)[O-])c2cc3ccccc3nc2c1`, the kinetic solubility worked out at 0.2 µg/mL (≈ 0.743 µM).
`O=C(CSc1nc2c(c(=O)[nH]1)CCC2)Nc1ccccc1Cl`: the solubility (kinetic) came to 8.8 µg/mL (≈ 26.2 µM).
`COc1ccc(C(C)=O)cc1COc1cccnc1[N+](=O)[O-]` gave a solubility (kinetic) of 5.1 µg/mL (≈ 16.9 µM).
The compound `CC/C(O)=C1\C(=O)CCCC1=NCCc1c(C)[nH]c2ccc(C)cc12` gave a solubility (kinetic) of 3.3 µg/mL (≈ 9.75 µM).
The compound `CC(C)(C)c1ccc(C(=O)NCC(=O)NCc2ccccn2)cc1` showed a solubility (kinetic) of 42.9 µg/mL (≈ 132 µM).
